From ChEMBL document CHEMBL1201862, “PubChem BioAssay data set” (2004)
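Growth conditions: 96-well plates. Treatment: test compound, 48 hours, 5 concentrations. Analysis: linear interpolation between bracketing concentrations; unreached endpoints set to highest concentration. Abbreviation: GI50, concentration required for 50% inhibition of growth.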 Activity calls are given as the source filed them. Cut-off read from the data, not from the text of the source: active = GI50 up to about 1.1 µM and inactive = higher.

How the values were obtained:
Experiment in all cases: growth of human tumour cells (NCI), 48 h
EKVX = test system: EKVX
SK-MEL-5 = test system: SK-MEL-5
SF-268 = test system: SF-268
UACC-62 = test system: UACC-62
RXF 393 = test system: RXF 393
SK-OV-3 = test system: SK-OV-3
HOP-62 = test system: HOP-62
HCC 2998 = test system: HCC 2998
OVCAR-5 = test system: OVCAR-5
KM12 = test system: KM12
KM-20L2 = test system: KM-20L2
OVCAR-4 = test system: OVCAR-4
HCT-15 = test system: HCT-15
COLO 205 = test system: COLO 205
Malme-3M = test system: Malme-3M
UO-31 = test system: UO-31
RPMI-8226 = test system: RPMI-8226
DMS-114 = test system: DMS-114
U-251 = test system: U-251
NCI-H522 = test system: NCI-H522

SMILES	GI50 (EKVX)	GI50 (SK-MEL-5)	GI50 (SF-268)	GI50 (UACC-62)	GI50 (RXF 393)	GI50 (SK-OV-3)	GI50 (HOP-62)	GI50 (HCC 2998)	GI50 (OVCAR-5)	GI50 (KM12)	GI50 (KM-20L2)	GI50 (OVCAR-4)	GI50 (HCT-15)	GI50 (COLO 205)	GI50 (Malme-3M)	GI50 (UO-31)	GI50 (RPMI-8226)	GI50 (DMS-114)	GI50 (U-251)	GI50 (NCI-H522)
COC(=O)C(C(=O)C(=O)Nc1ccc([N+](=O)[O-])cc1[N+](=O)[O-])c1nc2ccc(Cl)cc2nc1O (centres undefined)	40.8 µM (inactive)	99.8 µM (inactive)	> 100 µM (inactive)	> 100 µM (inactive)	30.5 µM (inactive)	> 100 µM (inactive)	> 100 µM (inactive)	> 100 µM (inactive)	> 100 µM (inactive)	> 100 µM (inactive)	> 100 µM (inactive)	> 100 µM (inactive)	> 100 µM	> 100 µM (inactive)	> 100 µM (inactive)	41.1 µM (inactive)	89.9 µM (inactive)	72.4 µM (inactive)	–	–
Cc1ccc(-c2cc(=O)c3cc(C)c(C)c(C(=O)O)c3o2)cc1[N+](=O)[O-]	> 100 µM (inactive)	> 100 µM (inactive)	> 100 µM (inactive)	> 100 µM (inactive)	> 100 µM (inactive)	> 100 µM (inactive)	–	–	> 100 µM (inactive)	> 100 µM (inactive)	> 100 µM (inactive)	> 100 µM (inactive)	> 100 µM	> 100 µM (inactive)	> 100 µM (inactive)	> 100 µM (inactive)	> 100 µM (inactive)	> 100 µM (inactive)	> 100 µM (inactive)	> 100 µM (inactive)
O=C(CCN1CCCC1)CC(c1ccccc1)c1c(O)c2ccccc2oc1=O (centres undefined)	> 100 µM (inactive)	> 100 µM (inactive)	> 100 µM (inactive)	> 100 µM (inactive)	> 100 µM (inactive)	> 100 µM (inactive)	> 100 µM (inactive)	> 100 µM (inactive)	–	> 100 µM (inactive)	> 100 µM (inactive)	> 100 µM (inactive)	> 100 µM	> 100 µM (inactive)	> 100 µM (inactive)	> 100 µM (inactive)	> 100 µM (inactive)	> 100 µM (inactive)	> 100 µM (inactive)	> 100 µM (inactive)
COC(=O)C1(C)CCc2c(OC)ccc(OC)c2C1=O (centres undefined)	> 100 µM (inactive)	> 100 µM (inactive)	> 100 µM (inactive)	> 100 µM (inactive)	> 100 µM (inactive)	> 100 µM (inactive)	> 100 µM (inactive)	> 100 µM (inactive)	> 100 µM (inactive)	> 100 µM (inactive)	–	> 100 µM (inactive)	> 100 µM	> 100 µM (inactive)	> 100 µM (inactive)	76.2 µM (inactive)	> 100 µM (inactive)	> 100 µM (inactive)	> 100 µM (inactive)	> 100 µM (inactive)
O=C1OC(c2ccccc2)=N/C1=C\c1cccc2ccccc12	–	> 100 µM (inactive)	> 100 µM (inactive)	> 100 µM (inactive)	> 100 µM (inactive)	> 100 µM (inactive)	> 100 µM (inactive)	> 100 µM (inactive)	> 100 µM (inactive)	> 100 µM (inactive)	–	> 100 µM (inactive)	> 100 µM	> 100 µM (inactive)	> 100 µM (inactive)	> 100 µM (inactive)	> 100 µM (inactive)	> 100 µM (inactive)	> 100 µM (inactive)	> 100 µM (inactive)
C=CCn1c(=O)c(C(=O)NC(=O)OCC)cn(C2CCCCC2)c1=O	> 100 µM (inactive)	> 100 µM (inactive)	–	> 100 µM (inactive)	–	> 100 µM (inactive)	> 100 µM (inactive)	> 100 µM (inactive)	> 100 µM (inactive)	> 100 µM (inactive)	> 100 µM (inactive)	> 100 µM (inactive)	> 100 µM	> 100 µM (inactive)	> 100 µM (inactive)	> 100 µM (inactive)	> 100 µM (inactive)	> 100 µM (inactive)	> 100 µM (inactive)	–
Cc1ccc2c(c1)nc1n2C(c2c(F)cccc2F)SC1 (centres undefined)	30.8 µM (inactive)	> 10 µM (inactive)	44.5 µM (inactive)	> 10 µM (inactive)	27 µM (inactive)	52.6 µM (inactive)	57 µM (inactive)	32.1 µM (inactive)	57.4 µM (inactive)	34.4 µM (inactive)	–	> 100 µM (inactive)	27.9 µM	32.3 µM (inactive)	18.9 µM (inactive)	26.9 µM (inactive)	34.4 µM (inactive)	–	39.8 µM (inactive)	31.5 µM (inactive)
C=C1c2nc3ccccc3n2C=C(c2ccc(C)cc2)N1c1ccc(C)cc1	46.6 µM (inactive)	19.8 µM (inactive)	> 100 µM (inactive)	> 83.8 µM (inactive)	25.9 µM (inactive)	> 100 µM (inactive)	> 100 µM (inactive)	22.5 µM (inactive)	> 100 µM (inactive)	23.8 µM (inactive)	–	69.5 µM (inactive)	23.8 µM	28.8 µM (inactive)	> 63.2 µM (inactive)	46 µM (inactive)	21.4 µM (inactive)	–	86.3 µM (inactive)	17.2 µM (inactive)
COc1cccc2c1N[S@](=O)S2	> 100 µM (inactive)	–	76 µM (inactive)	38.6 µM (inactive)	–	> 100 µM (inactive)	–	–	–	> 100 µM (inactive)	> 100 µM (inactive)	–	82.4 µM	–	> 100 µM (inactive)	42 µM (inactive)	63.4 µM (inactive)	–	39.3 µM (inactive)	86.1 µM (inactive)
O=C1C(Cl)=C(Oc2ccc([N+](=O)[O-])cc2)C(=O)c2c(O)ccc(O)c21	> 100 µM (inactive)	> 84.1 µM (inactive)	> 61.8 µM (inactive)	> 63.7 µM (inactive)	23.1 µM (inactive)	> 100 µM (inactive)	> 100 µM (inactive)	> 100 µM (inactive)	> 100 µM (inactive)	> 100 µM (inactive)	–	51.8 µM (inactive)	25.6 µM	19.9 µM (inactive)	18.1 µM (inactive)	> 100 µM (inactive)	21 µM (inactive)	–	> 100 µM (inactive)	19.2 µM (inactive)
CCC/N=C/c1c(O)c(O)c(C(C)C)c2cc(C)c(-c3c(C)cc4c(C(C)C)c(O)c(O)c(/C=N/CCC)c4c3O)c(O)c12	7.19 µM (inactive)	18.7 µM (inactive)	6.92 µM (inactive)	5.78 µM (inactive)	3.54 µM (inactive)	4.75 µM (inactive)	10.2 µM (inactive)	8.61 µM (inactive)	10 µM (inactive)	3.45 µM (inactive)	2.86 µM (inactive)	4.38 µM (inactive)	7.46 µM	5.25 µM (inactive)	–	6.3 µM (inactive)	9.16 µM (inactive)	1.71 µM (inactive)	2.07 µM (inactive)	1.53 µM (inactive)
CN(C)/C=N/S(=O)(=O)c1nn2c(C=O)c(-c3ccc(Cl)cc3)nc2s1	3.28 µM (inactive)	1.58 µM (inactive)	3.46 µM (inactive)	3.91 µM (inactive)	1.51 µM (inactive)	15.8 µM (inactive)	13.2 µM (inactive)	5.25 µM (inactive)	1.75 µM (inactive)	3.63 µM (inactive)	–	1.81 µM (inactive)	1.61 µM	1.28 µM (inactive)	1.47 µM (inactive)	1.02 µM (active)	0.785 µM (active)	–	2.95 µM (inactive)	0.557 µM (active)
COc1ccc(/C(Cl)=C(\C=O)c2ccc([N+](=O)[O-])cc2)cc1OC	> 33.3 µM (inactive)	8.2 µM (inactive)	6.73 µM (inactive)	3.92 µM (inactive)	3.76 µM (inactive)	26.7 µM (inactive)	22.7 µM (inactive)	–	5.13 µM (inactive)	20.4 µM (inactive)	12.2 µM (inactive)	–	5 µM	14.2 µM (inactive)	14.6 µM (inactive)	12.2 µM (inactive)	2.87 µM (inactive)	5.78 µM (inactive)	6.32 µM (inactive)	4.07 µM (inactive)
S=C=Nc1ccc(CSc2nc3ccccc3[nH]2)cc1	20 µM (inactive)	15.9 µM (inactive)	17 µM (inactive)	15.8 µM (inactive)	16.4 µM (inactive)	21.6 µM (inactive)	17.5 µM (inactive)	18.1 µM (inactive)	18.2 µM (inactive)	17.5 µM (inactive)	–	17.3 µM (inactive)	15 µM	15.5 µM (inactive)	17.6 µM (inactive)	19.5 µM (inactive)	23.2 µM (inactive)	–	17.1 µM (inactive)	4.25 µM (inactive)
COc1ccc(Cc2c(=O)[nH]nc3ccccc23)cc1	> 100 µM (inactive)	35.2 µM (inactive)	> 100 µM (inactive)	> 100 µM (inactive)	–	> 100 µM (inactive)	> 100 µM (inactive)	> 100 µM (inactive)	> 100 µM (inactive)	> 100 µM (inactive)	> 100 µM (inactive)	> 100 µM (inactive)	> 100 µM	> 100 µM (inactive)	> 100 µM (inactive)	43.8 µM (inactive)	> 100 µM (inactive)	> 100 µM (inactive)	–	–
CCCOC(=O)C1CCC(=O)N1C(=O)C(Cl)Cl (centres undefined)	> 100 µM (inactive)	> 100 µM (inactive)	> 100 µM (inactive)	> 100 µM (inactive)	–	> 100 µM (inactive)	> 100 µM (inactive)	> 100 µM (inactive)	> 100 µM (inactive)	> 100 µM (inactive)	> 100 µM (inactive)	> 100 µM (inactive)	> 100 µM	> 100 µM (inactive)	> 100 µM (inactive)	> 100 µM (inactive)	> 100 µM (inactive)	> 100 µM (inactive)	> 100 µM (inactive)	> 100 µM (inactive)
